Structures can show the parent of a compound that is named as a salt. Where two headings read alike, the source gives them in different places.

In test [1] the target is T1, SARS-CoV-2 PLpro (nsp3 1564–1878) (Severe acute respiratory syndrome coronavirus 2, UniProt P0DTD1). The test is described as follows: biochemical. Conditions: high concentration screen, read-out: % of control remaining. The arrangement: FRET-quenched peptide (Pro3) cleavage by PLpro, 10 min pre-incubation, slope over 20 min, normalised to no-compound control.
The target of test [2] is T1, SARS-CoV-2 PLpro (nsp3 1564–1878). The test is described as follows: biochemical. Conditions: low concentration screen, read-out: % of control remaining. The arrangement: FRET-quenched peptide (Pro3) cleavage by PLpro, 10 min pre-incubation, slope over 20 min, normalised to no-compound control.

Turning to `COc1ccc(-c2ccc3cc(C(=O)O)ccc3c2)cc1[C@]12C[C@H]3C[C@H](C[C@H](C3)C1)C2` [Adapalene], in test [1] (Well no.=1939), the remaining activity at 3.75 µM worked out at 103%. Moreover, the remaining activity at 1.25 µM in test [2] (Well no.=1939) amounted to 99.2%.
Regarding `O=C(OC12CC3CC(CC(C3)C1)C2)c1ccc(NCc2cc(O)ccc2O)cc1` [Adaphostin], in test [1] (Well no.=5772), the remaining activity at 3.75 µM amounted to 109%. The remaining activity at 1.25 µM in test [2] (Well no.=5772) is 105%.
For the compound `O=C(O)/C=C/c1ccc(-c2ccc(O)c(C34CC5CC(CC(C5)C3)C4)c2)cc1` [Adarotene], the remaining activity at 3.75 µM in test [1] (Well no.=6342) was 99%. Further, the remaining activity at 1.25 µM in test [2] (Well no.=6342) stood at 101%.
On to `Nc1ncnc2nc[nH]c12` [Adenine sulfate], for which, in test [1] (Well no.=5006), the remaining activity at 3.75 µM stood at 85.9%. For the same compound, the remaining activity at 1.25 µM in test [2] (Well no.=5006) stood at 97.9%.
With `Nc1[nH]cnc2ncnc1-2` [Adenine], the remaining activity at 3.75 µM in test [1] (Well no.=5004) worked out at 107%; in test [1] (Well no.=7253), 98.1%. The remaining activity at 1.25 µM in test [2] (Well no.=5004) turned out to be 108%; in test [2] (Well no.=7253) it was 101%.
As to `Nc1ncnc2c1ncn2[C@@H]1O[C@H](COP(=O)(O)OP(=O)(O)O)[C@@H](O)[C@H]1O` [Adenosine 5'-diphosphate], the remaining activity at 3.75 µM in test [1] (Well no.=7363) was determined as 105%; in test [1] (Well no.=7868), 104%. Also, the values for the remaining activity at 1.25 µM in test [2] (Well no.=7363) and in test [2] (Well no.=7868) were 104% and 102%, respectively.
Turning to `Nc1ncnc2c1ncn2[C@@H]1O[C@H](COP(=O)(O)O)[C@@H](O)[C@H]1O` [Adenosine 5'-monophosphate monohydrate], the remaining activity at 3.75 µM in test [1] (Well no.=7902) was 101%. In addition, the remaining activity at 1.25 µM turned out to be 96.3% in test [2] (Well no.=7902) and 106% in test [2] (Well no.=8121).
As to `Nc1ncnc2nc(-c3ccc(N4CCOCC4)nc3)cc(-c3cccc(Br)c3)c12` [Adenosine Kinase Inhibitor], in test [1] (Well no.=2694), the remaining activity at 3.75 µM was 103%. In test [2] (Well no.=2694), the remaining activity at 1.25 µM turned out to be 102%.
Take `Nc1ncnc2c1ncn2[C@@H]1O[C@H](COP(=O)(O)O)[C@@H](O)[C@H]1O` [Adenosine monophosphate]: the remaining activity at 3.75 µM in test [1] (Well no.=7109) was 102%; in test [1] (Well no.=7816), 104%. In addition, the remaining activity at 1.25 µM in test [2] (Well no.=7109) turned out to be 103%; in test [2] (Well no.=7816) it was 107%.
Take `Nc1ncnc2c1ncn2[C@@H]1O[C@H](CO)[C@@H](O)[C@H]1O` [Adenosine]: the remaining activity at 3.75 µM in test [1] (Well no.=200) came out at 95.6%; in test [1] (Well no.=6301) it was 102%; in test [1] (Well no.=8048), 88.7%. For the same compound, the remaining activity at 1.25 µM in test [2] (Well no.=200) amounted to 94%; in test [2] (Well no.=6301) it was 105%; in test [2] (Well no.=8048), 87.9%.
As for `CCN(CC)CCOC(=O)C(c1ccccc1)c1ccccc1` [Adiphenine HCl], the remaining activity at 3.75 µM in test [1] (Well no.=5060) amounted to 105%. Also, the remaining activity at 1.25 µM in test [2] (Well no.=5060) is 105%.
As for `O=C(O)CCCCC(=O)O` [Adipic acid], in test [1] (Well no.=6869), the remaining activity at 3.75 µM turned out to be 98.1%. Besides, the remaining activity at 1.25 µM in test [2] (Well no.=6869) stood at 102%.
Regarding `O=C(COc1ccc(C(=O)c2ccccc2)cc1)NC1CCN(Cc2ccccc2)CC1` [AdipoRon], the remaining activity at 3.75 µM in test [1] (Well no.=7239) was 96.7%. Also, in test [2] (Well no.=7239), the remaining activity at 1.25 µM was determined as 100%.
Regarding `Cc1cc(O[C@@H](CCC(F)(F)F)c2ccc(C(=O)NCCC(=O)O)cc2)cc(C)c1-c1ccc(C(C)(C)C)cc1` [Adomeglivant], in test [1] (Well no.=7043), the remaining activity at 3.75 µM turned out to be 98.4%. For the same compound, the remaining activity at 1.25 µM in test [2] (Well no.=7043) came to 99.3%.
Turning to `Fc1ccc(-c2cncc(CN3CCN(c4cccc5c4OCCO5)CC3)c2)cc1` [Adoprazine], in test [1] (Well no.=8443), the remaining activity at 3.75 µM came to 98.5%. Also, the remaining activity at 1.25 µM in test [2] (Well no.=8443) came out at 100%.
`O=C(C[S+]([O-])C(c1ccccc1)c1ccccc1)NO` (centres unmarked) [Adrafinil]: the remaining activity at 3.75 µM in test [1] (Well no.=6233) stood at 94.6%. Further, the remaining activity at 1.25 µM in test [2] (Well no.=6233) was 102%.
As to `CNCC(=O)c1ccc(O)c(O)c1` [Adrenalone (hydrochloride)], the remaining activity at 3.75 µM in test [1] (Well no.=7433) came out at 103%. Also, the remaining activity at 1.25 µM in test [2] (Well no.=7433) worked out at 103%.
In the case of `CNCC(=O)c1ccc(O)c(O)c1` [Adrenalone HCl], the remaining activity at 3.75 µM in test [1] (Well no.=5034) was determined as 94.4%. The remaining activity at 1.25 µM in test [2] (Well no.=5034) amounted to 94.7%.
Take `CCCCC/C=C/C/C=C/C/C=C/C/C=C/CCCCCC(=O)O` [Adrenic acid (22:4 n-6)]: in test [1] (Well no.=4253), the remaining activity at 3.75 µM was found to be 98.5%. Further, the remaining activity at 1.25 µM in test [2] (Well no.=4253) was 105%.
On to `N=C(N)NCCCCN` [Agmatine (sulfate)], for which the remaining activity at 3.75 µM in test [1] (Well no.=7803) is 106%. In test [2] (Well no.=7803), the remaining activity at 1.25 µM is 104%.
On to `N=C(N)NCCCCN` [Agmatine sulfate], for which the remaining activity at 3.75 µM in test [1] (Well no.=261) was 96.2%. Moreover, in test [2] (Well no.=261), the remaining activity at 1.25 µM came out at 93.6%.
Turning to `COc1ccc2cccc(CCNC(C)=O)c2c1` [Agomelatine], the figures for the remaining activity at 3.75 µM in test [1] (Well no.=5143) and in test [1] (Well no.=7340) were 100% and 102%, respectively. Moreover, the remaining activity at 1.25 µM is 100% in test [2] (Well no.=5143) and 99.9% in test [2] (Well no.=7340).
On to `CC1=C[C@@H]2c3cccc4[nH]cc(c34)C[C@H]2N(C)C1` [Agroclavine], for which, in test [1] (Well no.=210), the remaining activity at 3.75 µM is 93.5%. Besides, the remaining activity at 1.25 µM in test [2] (Well no.=210) worked out at 94.3%.
For the compound `CC[C@H]1[C@@H]2C[C@H]3[C@@H]4N(C)c5ccccc5[C@]45C[C@@H]([C@H]2[C@H]5O)N3[C@@H]1O` [Ajmaline], the remaining activity at 3.75 µM in test [1] (Well no.=3437) is 98.2%. Further, in test [2] (Well no.=3437), the remaining activity at 1.25 µM worked out at 98.9%.
On to `CC[n+]1c(/C=C/N(C)c2ccccc2)n(-c2ccccc2)c2ccc(-c3nc4ccccc4s3)cc21` [Akt Inhibitor IV], for which the remaining activity at 3.75 µM in test [1] (Well no.=2311) stood at 101%. For the same compound, the remaining activity at 1.25 µM in test [2] (Well no.=2311) was determined as 102%.
Take `CCN(CC)CCCCN1c2ccccc2Oc2ccc(Cl)cc21` [Akt Inhibitor X]: the remaining activity at 3.75 µM in test [1] (Well no.=2317) amounted to 102%. For the same compound, the remaining activity at 1.25 µM in test [2] (Well no.=2317) worked out at 101%.
`O=c1[nH]c2ccccc2n1C1CCN(Cc2ccc(-c3[nH]c4cc5ncnc5cc4nc3-c3ccccc3)cc2)CC1` [Akt-I-1,2]: the remaining activity at 3.75 µM in test [1] (Well no.=2755) came to 98.5%. In test [2] (Well no.=2755), the remaining activity at 1.25 µM came out at 101%.
Consider `CN(C)CC(C)(C)CNc1nn2c(-c3ccccc3)nnc2cc1C1CCC1` [Akt-I-1], for which the remaining activity at 3.75 µM in test [1] (Well no.=2707) is 106%. In test [2] (Well no.=2707), the remaining activity at 1.25 µM is 107%.
As for `CC(N)C(=O)OC(C)(C)Cc1ccc(Cl)cc1` (centres unmarked) [Alaproclate hydrochloride], the remaining activity at 3.75 µM in test [1] (Well no.=208) is 102%. The remaining activity at 1.25 µM in test [2] (Well no.=208) was 102%.
